In ChEMBL document CHEMBL1149902, “Steroidal triglycosides, kurilensosides A, B, and C, and other polar steroids from the Far Eastern starfish Hippasteria kurilensis” (2008):

What was measured:
Type in all cases: functional
Mesocentrotus nudus [1] = test: Inhibition of Strongylocentrotus nudus egg fertilization by Strongylocentrotus nudus sperm at 55 uM
Mesocentrotus nudus [2] = test: Inhibition of Strongylocentrotus nudus egg fertilization by Strongylocentrotus nudus sperm at 67 uM
Mesocentrotus nudus [3] = test: Inhibition of Strongylocentrotus nudus egg fertilization by Strongylocentrotus nudus sperm
Mesocentrotus nudus [4] = test: Inhibition of Strongylocentrotus nudus egg fertilization by Strongylocentrotus nudus sperm at 13 uM

Row | Structure (SMILES) | inhibition at 55 µM (Mesocentrotus nudus [1]) | EC100 (Mesocentrotus nudus [3]) | other results
1 | CO[C@H]1[C@H](O[C@H]2CC[C@@]3(C)C([C@H]2O)[C@@H](O)[C@@H](O)[C@@]2(O)[C@@H]4[C@H](O)C[C@H]([C@H](C)CC[C@H](O[C@@H]5O[C@@H](CO[C@H]6OC[C@H](O)[C@@H](O)[C@@H]6O)[C@H](O)[C@H]5O)C(C)C)[C@@]4(C)CC[C@@H]23)OC[C@@H](OC)[C@@H]1O (stereo partly specified) [KURILENSOSIDE B] | 100% |  | 
2 | CO[C@H]1[C@H](OC[C@@H]2O[C@@H](O[C@@H](CC[C@@H](C)[C@H]3C[C@@H](O)[C@@H]4[C@]3(C)CC[C@H]3[C@@]4(O)C[C@H](O)C4[C@@H](O)[C@@H](O)CC[C@@]43C)C(C)C)[C@H](O)[C@H]2O)OC[C@@H](O)[C@@H]1O (stereo partly specified) [KURILENSOSIDE D] |  |  | inhibition at 67 µM (Mesocentrotus nudus [2]): 100%
3 | CO[C@H]1[C@H](O[C@H]2CC[C@@]3(C)C([C@H](O)C[C@@]4(O)[C@@H]5[C@@H](O)C[C@H]([C@H](C)CC[C@H](O[C@@H]6O[C@@H](CO)[C@H](OS(=O)(=O)[O-])[C@H]6O[C@@H]6O[C@@H](CO)[C@H](O)[C@H]6O)C(C)C)[C@@]5(C)CC[C@@H]43)[C@H]2O)OC[C@@H](O)[C@@H]1O.[Na+] (stereo partly specified) [KURILENSOSIDE A] |  | 8.9 ×10⁻⁵ M | 
4 | CO[C@H]1[C@H](OC[C@@H]2O[C@@H](O[C@@H](CC[C@@H](C)[C@H]3C[C@@H](O)[C@@H]4[C@]3(C)CC[C@H]3[C@@]4(O)[C@H](O)[C@H](O)C4[C@@H](O)[C@@H](O[C@@H]5OC[C@@H](O)[C@H](O)[C@H]5OC)CC[C@@]43C)C(C)C)[C@H](O)[C@H]2O)OC[C@@H](O)[C@@H]1O (stereo partly specified) [KURILENSOSIDE C] | 100% |  | 
5 | CC(C)[C@@H](O)/C=C/[C@@H](C)[C@H]1C[C@@H](O)C2[C@@]3(O)C(CC[C@@]21C)[C@@]1(C)CC[C@H](O)[C@H](O)C1[C@@H](OS(=O)(=O)[O-])[C@H]3O.[Na+] (stereo partly specified) |  | 11 ×10⁻⁵ M | 
6 | CC(C)[C@@H](O)CC[C@@H](C)[C@H]1C[C@H](O)[C@@H]2[C@]1(C)CC[C@H]1[C@@]2(O)C[C@@H](O)C2[C@@H](O)[C@@H](O)CC[C@@]21C (stereo partly specified) |  |  | inhibition at 13 µM (Mesocentrotus nudus [4]): 100%
